Legend:
Format in all cases: in vivo, human
[1] = system: subjects with GBS; assay: Serum laboratories drawn at start and every week of the study
From the text: This was a Phase I double-blind, placebo controlled, crossover, dose escalating study in subjects with GBS similar to those proposed for MS and SCI. An initial trial of ten patients will be randomized to […] of the two treatment sequences (A or B) as shown below.
The study population consists of subjects with GBS injury whose neurological status has been stable for at least eighteen months. Ten subjects will be enrolled.
In addition, serum laboratories were drawn at the beginning of the study and every week of the study. The serum laboratories included glucose, blood urea nitrogen, creatinine, uric acid, calcium, total protein, albumin, phosphate, total bilirubin, cholesterol, LDH, SGOT/AST, alkaline phosphatase, hematocrit, hemoglobin, red blood cell count, platelet count, and white blood cell count with differential.

[2] = system: subjects with GBS; assay: Hand grip strength on hand dynamometer, same study; settings: hand-held dynamometer; p=0.0243 paired Student's t-test; repeated measures ANOVA p=0.0715; FIG. 3
Method: This was a Phase I double-blind, placebo controlled, crossover, dose escalating study in subjects with GBS similar to those proposed for MS and SCI. An initial trial of ten patients will be randomized to […] of the two treatment sequences (A or B) as shown below. The study population consists of subjects with GBS injury whose neurological status has been stable for at least eighteen months. Ten subjects will be enrolled. Hand grip strength was measured on a hand dynamometer that had been calibrated. Each patient was given three trials separated by thirty second rest periods and the strongest of the three measurements was recorded for each hand. [table]

[3] = system: subjects with GBS; assay: Motor strength on 0-5 ordinal scale, Phase I double-blind placebo controlled crossover study
From the text: This was a Phase I double-blind, placebo controlled, crossover, dose escalating study in subjects with GBS similar to those proposed for MS and SCI. An initial trial of ten patients will be randomized to […] of the two treatment sequences (A or B) as shown below. The study population consists of subjects with GBS injury whose neurological status has been stable for at least eighteen months. Ten subjects will be enrolled. Motor strength was rated on the traditional 0-5 ordinal scale: 0—absent motor strength 1—trace motor strength 2—can move the specified joint but only with gravity eliminated 3—can move the joint against gravity but not against any opposing force 4—can move the joint against opposing force but the strength is not normal for the person or symmetrical 5—normal motor strength This scale was employed to measure the following motor strength for each of these joint motions on both the right and the left sides: hip flexion, hip adduction, hip abduction, knee flexion, knee extension, ankle dorsi-flexion, ankle plantar flexion, shoulder abduction, elbow extension, elbow flexion, wrist flexion, and wrist extension. [table]

[4] = serum laboratory, before change
[5] = serum laboratory, statistically significant, not clinically significant

Nc1ccncc1 [4-aminopyridine]
Hematocrit, starting value ([1]; before change): 42.7 | All other laboratories, change while on the active agent ([1]; glucose, BUN, creatinine, calcium, proteins, bilirubin, cholesterol, LDH, alkaline phosphatase, blood counts etc.): no significant change | SGOT, starting value [1, 4]: 25.1 | Uric acid, starting value [1, 4]: 6.4 | SGOT, after change on the active agent [1, 5]: 27.9 | Uric acid, after change on the active agent [1, 5]: 6.5 | Hematocrit, after change on the active agent ([1]; statistically significant, not clinically significant): 41.6 | Grip strength, start of study compared to after four weeks of treatment [2]: increased significantly | Lower extremity strength, average motor score on the active medication ([3]; 0-5 scale, 10-20 mg bid escalating, p<0.0001, Friedeman's, FIG. 1): 3.7 | Upper extremity strength, average motor score after increase ([3]; 0-5 scale, 10-20 mg bid escalating, p=0.0065, Friedeman's, FIG. 2): 3.7 | Upper extremity strength, average motor score, starting value ([3]; 0-5 scale, value before increase, FIG. 2): 3.2 | Lower extremity strength, average motor score, starting value ([3]; 0-5 scale, value before increase, seven GBS patients, FIG. 1): 3.2 | Duration of neural biological effects after stopping the drug ([3]; patients on active agent first, motor and grip strength continued to drop for up to two additional weeks after one week washout): more than two weeks

Source: US6503931B1, “Use of 4-amino pyridine for treatment of peripheral neuropathies” (The UAB Research Foundation, priority 1999, dated 2003)
